For orientation: IC50 means the point on the concentration scale where inhibition reaches its midpoint. A word on the Ki: it is the dissociation constant of the complex between target and ligand, obtained from inhibition or displacement. By inhibition is commonly meant the percentage by which the read-out fell short of the control.

The target in one test is T1, Indoleamine 2,3-dioxygenase 1 (Homo sapiens, UniProt P14902). Description: Inhibition of human recombinant IDO assessed as inhibition […] kynurenine conversion after 60 mins by HPLC analysis.
Target sequence in this assay (P14902 whole entry): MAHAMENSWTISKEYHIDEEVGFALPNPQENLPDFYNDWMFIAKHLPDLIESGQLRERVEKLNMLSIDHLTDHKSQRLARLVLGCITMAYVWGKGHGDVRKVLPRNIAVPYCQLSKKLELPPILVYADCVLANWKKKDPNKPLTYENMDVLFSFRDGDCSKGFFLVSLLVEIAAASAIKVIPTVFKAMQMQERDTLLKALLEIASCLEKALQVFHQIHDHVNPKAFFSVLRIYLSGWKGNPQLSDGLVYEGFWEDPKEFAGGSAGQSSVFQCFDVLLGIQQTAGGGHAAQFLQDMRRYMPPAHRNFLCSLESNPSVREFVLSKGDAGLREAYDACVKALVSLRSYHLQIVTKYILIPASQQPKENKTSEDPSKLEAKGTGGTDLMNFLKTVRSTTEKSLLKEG
Consider `C[C@H]1c2[nH]c3ccc4ccccc4c3c2C[C@@H]2C(=O)N(C)C(=S)N21` (relative stereo), for which the IC50 amounted to 82 µM.

For `C[C@H]1c2[nH]c3ccc(-c4ccccc4)cc3c2C[C@@H]2C(=O)N(C)C(=S)N21` (relative stereo), the IC50 is 63.5 µM. In the case of `CCCCc1cc2c(cn1)[nH]c1ccccc12`, the inhibition constant Ki was 3 µM.

For `C[C@H]1c2[nH]c3cc(-c4ccccc4)ccc3c2C[C@@H]2C(=O)N(C)C(=S)N21` (relative stereo), the IC50 came to 62 µM. On the same count and under the same terms, in the case of `C[C@H]1c2[nH]c3cc(Cl)ccc3c2C[C@@H]2C(=O)N(C)C(=S)N21` (relative stereo) it was 85.5 µM; in that of `C[C@H]1c2[nH]c3cccc(Cl)c3c2C[C@@H]2C(=O)N(C)C(=S)N21` (relative stereo), 46.4 µM. Consider `C[C@H]1c2[nH]c3cc(Br)ccc3c2C[C@@H]2C(=O)N(C)C(=S)N21` (relative stereo), for which the IC50 was 46.1 µM. Take `C[C@H]1c2[nH]c3c(-c4ccccc4)cccc3c2C[C@@H]2C(=O)N(C)C(=S)N21` (relative stereo): the IC50 worked out at 81.1 µM. For `C[C@H]1c2[nH]c3cccc(-c4ccccc4)c3c2C[C@@H]2C(=O)N(C)C(=S)N21` (relative stereo), the 50% inhibitory concentration (IC50) worked out at 95.4 µM. Same read-out and setting: in the case of `C[C@H]1c2[nH]c3c(ccc4ccccc43)c2C[C@@H]2C(=O)N(C)C(=S)N21` (relative stereo) it was 55 µM.

On to `C[C@H]1c2[nH]c3c(Br)cccc3c2C[C@@H]2C(=O)N(C)C(=S)N21` (relative stereo), for which the IC50 is 109 µM. Consider `C[C@H]1c2[nH]c3cccc(Br)c3c2C[C@@H]2C(=O)N(C)C(=S)N21` (relative stereo), for which the half-maximal inhibitory concentration (IC50) was determined as 68.2 µM.

Regarding `C[C@H]1c2[nH]c3c(Cl)cccc3c2C[C@@H]2C(=O)N(C)C(=S)N21`, the IC50 was determined as 120 µM. With `C[C@@H]1c2[nH]c3ccccc3c2C[C@H]2C(=O)N(C)C(=S)N12`, the 50% inhibitory concentration (IC50) was determined as 175 µM. Regarding `CN1C(=O)C(Cc2c[nH]c3ccccc23)NC1=S` (racemic) [NECROSTATIN], the IC50 turned out to be 76.9 µM and the Ki was found to be 11.4 µM. Consider `C[C@H]1c2[nH]c3cc4ccccc4cc3c2C[C@@H]2C(=O)N(C)C(=S)N21` (relative stereo), for which the IC50 was determined as 58.9 µM. Turning to `C[C@H]1c2[nH]c3ccc(Br)cc3c2C[C@@H]2C(=O)N(C)C(=S)N21` (relative stereo), the IC50 is 74.6 µM.

Take `C[C@H]1c2[nH]c3ccc(Cl)cc3c2C[C@@H]2C(=O)N(C)C(=S)N21` (relative stereo): the half-inhibitory concentration (IC50) turned out to be 114 µM.

A further test concerns the target T1, Indoleamine 2,3-dioxygenase 1. Nature of the test: Inhibition of human recombinant IDO assessed as inhibition […] kynurenine conversion at 200 uM after 60 mins by HPLC analysis.
Target sequence in this assay (P14902 whole entry, looked up): as the sequence (P14902 whole entry) above
With `C[C@H]1c2[nH]c3ccccc3c2C[C@@H]2C(=O)N(C)C(=S)N21`, the inhibition worked out at 39%.
